From patent publication US20110038948A1, “Methods of Reducing the Production of Reactive Oxygen Species and Methods of Screening or Identifying Compounds and Compositions that Reduce the Production of Reactive Oxygen Species” (UNIVERSITY OF TENNESSEE RESEARCH FOUNDATION, priority 2005, published 2011) come the findings set out here.

Assay [1] has as its system macrophage inhibitory factor (MIF). The assay is described as follows: MIF expression in human adipocytes. The assay is classed as cell-based. The following applies: calcitriol 10 nmol/L, 48 hours; p=0.001. An excerpt:
Cell culture: Human preadipocytes used in this study were supplied by Zen-Bio (Research Triangle, N.C.). Preadipocytes were inoculated in DMEM/Ham's F-10 medium (DMEM-F10) (1:1, vol/vol) containing 10% FBS, 15 mmol/L HEPES, and antibiotics at a density of 30,000 cells/cm2. Confluent monolayers of preadipocytes were induced to differentiate with a standard differentiation medium consisting of DMEM-F10 (1:1, vol/vol) medium supplemented with 15 mmol/L HEPES, 3% FBS, 33 μmol/L biotin, 17 μmol/L pantothenate, 100 nmol/L insulin, […] methylisobutylxanthine, 1 μmol/L dexamethasone, 1 μmol/L BRL49653, and antibiotics. […]
Cells were washed with fresh adipocyte medium, re-fed with medium containing the indicated treatments, and incubated at 37° C. in 5% CO2 for 48 hours before analysis. Cell viability was measured via trypan blue exclusion.
Adipocyte and muscle 18s, CD14, TNFα, MIP, M-CSF, IL-6 and MCP-1 were quantitatively measured using a Smart Cycler Real Time PCR System (Cepheid, Sunnyvale, Calif.) with a TaqMan 1000 Core Reagent Kit (Applied Biosystems, Branchburg, N.J.). […] Reactions of quantitative RT-PCR for standards and unknown samples were also performed according to the instructions of Smart Cycler System (Cepheid, Sunnyvale, Calif.) and TaqMan Real Time PCR Core Kit (Applied Biosystems, Branchburg, N.J.). […]

In a further assay the test system is cyclin A. The experiment in a line: Cyclin A expression in cultured adipocytes. The assay is classed as cell-based, mouse. The following applies: compound plus glucose 30 mmol/L, 48 hours. The method, then:
3T3-L1 preadipocytes were incubated at a density of 8000 cells/cm^2 (10 cm^2 dish) and grown in Dulbecco's modified Eagle's medium (DMEM) containing 10% FBS and antibiotics (adipocyte medium) at 37° C. in 5% CO2 in air. Confluent preadipocytes were induced to differentiate with a standard differentiation medium consisting of DMEM-F10 (1:1, vol/vol) medium supplemented with 1% FBS, 1 μM dexamethasone, IBMX (0.5 mM) and antibiotics (1% Penicillin-Streptomycin). Preadipocytes were maintained in this differentiation medium for 3 days and subsequently cultured in adipocyte medium. Cultures were re-fed every 2-3 days to allow 90% of cells to reach full differentiation before conducting chemical treatment. Chemicals were freshly diluted in adipocyte medium before treatment. […] Cell viability was measured via trypan blue exclusion. Adipocyte 18s, cyclin A, NADPH oxidase, and UCP2 were quantitatively measured using a Smart Cycler Real Time PCR System (Cepheid, Sunnyvale, Calif.) with a TaqMan 1000 Core Reagent Kit (Applied Biosystems, Branchburg, N.J.). […] Reactions of quantitative RT-PCR for standards and unknown samples were also performed according to the instructions of Smart Cycler System (Cepheid, Sunnyvale, Calif.) and TaqMan Real Time PCR Core Kit (Applied Biosystems, Branchburg, N.J.). The mRNA quantitation for each sample was further normalized using the corresponding 18s quantitation.

Another assay relates to C2C12 myotubes. The assay is described as follows: Fatty acid oxidation (palmitate oxidation) in muscle cells. The assay is classed as cell-based, murine. The following applies: calcitriol 10 nM, 48 hours; p<0.05. The method, then:
FIG. 53: Fatty acid oxidation was determined via palmitate oxidation. […] Data are corrected for DNA content. Values are presented as mean±SEM, n=6. Means with different letter differ with p<0.05.
The adipose tissue-skeletal muscle endocrine axis may play a potential role in regulating metabolic energy partitioning. […] While both calcium and dairy accelerate adipose tissue loss, dairy exerts a substantially greater effect and exerts a protective effect on lean tissue during hypocaloric diets. We have shown that dietary calcium modulation of adiposity is mediated, in part, by suppression of calcitriol, while the additional effect of dairy is mediated by additional bioactive components; these include the high concentration of leucine, a key factor in the regulation of muscle protein turnover. […] However, the effect of leucine and calcium, in regulating this process is unclear. Accordingly, present study was designed to investigate the effect of leucine, calcitriol and calcium on energy metabolism in murine adipocytes and muscle cells. Leucine induced a 41% increase in fatty acid oxidation in C2C12 muscle cells (p<0.001) and decreased fatty acid synthase gene expression by 66% (p<0.001) in 3T3-L1 adipocytes. Calcitriol decreased muscle cell fatty acid oxidation by 17% (p<0.05) and increased adipocyte FAS gene expression by 3-fold (p<0.05).

For the compound `C=C1/C(=C\C=C2/CCC[C@]3(C)[C@@H]([C@H](C)CCCC(C)(C)O)CC[C@@H]23)C[C@@H](O)C[C@@H]1O` [calcitriol, 1,25-(OH)2-D3], in assay [1], the “increase in MIF expression” value stood at 59%. For the same compound, the “effect on glucose stimulated cyclin A expression” value in the assay on cyclin A was “augmented”. The “decrease in muscle cell fatty acid oxidation” value with C2C12 myotubes came out at 17%.
